Experimental data published in patent US4798898A, “Antitussive and mucus regulating 2-substituted thiazolidines” (Boehringer Biochemia Robin S.p.A., priority 1984, dated 1989).
Where two headings read alike, the source gives them in different places.

Columns and labels:
[1] = test system: pathological sputum of bronchitic rabbits; experiment: Mucus regulating properties in bronchitic rabbits (sputum AUC as % compared to bronchitic controls); format: in vivo, male New Zealand white rabbits; details: for Fucose (mg/ml), AUC as a 100% compared to bronchitic controls / Galactose (mg/ml), AUC as a 100% compared to bronchitic controls / Mucus production (ml/kg), AUC as a 100% compared to bronchitic controls / Phospholipids (mg/ml), AUC as a 100% compared to bronchitic controls / Protein (mg/ml), AUC as a 100% compared to bronchitic controls / Sialic acid (mg/ml), AUC as a 100% compared to bronchitic controls / Viscosity (cps), AUC as a 100% compared to bronchitic controls: Table 2, equimolecular amounts to S-carboxymethyl cysteine; for mucus regulating activity (in words): rabbit, in vivo; for mucus regulating effectiveness compared with carboxymethylcysteine: dosage level 0.01-0.08M vs 0.153M carboxymethylcysteine
Description: The animals are submitted to inhalation of a 5% H2 SO3 aqueous solution by aerosol (exposition of 3 hours a day for 3 alternate days), to induce a chronic bronchial inflammatory disease which causes a production of pathological sputum in the bronchial tree.
Aim of the experiments is to evaluate modifications of selective parameters such as dry weight of the sputum, viscosity, content in proteins, phospholipids, galactose, sialic acid and fucose, induced in this pathological sputum by pharmacological treatment with the compounds of the invention.
To this purpose, the sputum produced in the bronchial tree is collected daily, through a "T" shaped glass cannula, inserted in the trachea, before and after oral twice a day (9.00 a.m. and 4.00 p.m.) treatment with one of the compounds of the invention.
The schedule treatment procedure is shown in the following Scheme 1: [drawing 21] where 0 indicates the day of implantation of the tracheal cannula; -7-5-3 indicate the days of H2 SO3 treatment (H); 1, 2, 3, 4 indicate the days of oral administration of the compounds of the invention (T) and the time of mucus collection (M).
The mucus collected in day 1 in the morning is considered as a blank; 7 indicates the day of the animal sacrifice after the mucous collection.
The sputum samples are stored in the freezer (-20° C.) until the investigation of biological and rheological parameters is carried out.
The samples are investigated for relative viscosity, measured at 37° C. with a Brookfield viscometer (model LT VD) equipped with a 1,565° cone-plate, and aliquoted for biochemical analysis of protein, phospholipids, galactose, sialic acid and fucose contents. Dry weight of the mucus is also determined. For each parameter, cumulative data are referred to a seven days period after the beginning of the treatment and they are extrapolated using the AUC method (area under curve) calculated by the trapazoidal rule. Finally the data are compared with data obtained from controls (vehicle treatment), non bronchitic rabbits (vehicle treatment) and positive controls bronchitic rabbits treated with 0.153M […].

[2] = test system: cough induced by citric acid aerosol in guinea pigs; experiment: Guinea pig cough test (citric acid aerosol, Charlier procedure); format: in vivo; details: for decrease of the antitussive potency in comparison with the reference compound 3 / ED50: guinea pig cough test; for ED50: i.p., 60 minutes after treatment
Description: (§1) The techniques described by Charlier et al. (Arch. Int. Pharmacodyn. 134, 306, 1961) and by Stefko et al. (J. Pharm. Exp. Therap., 108, 217, 1953), adapted with minor modifications, are used to investigate the antitussive properties of the compounds of the invention. Codeine phosphate is used as positive reference compound.
According to the Charlier procedure guinea pigs are exposed to a citric acid aerosol (7.5%) and cough is recorded 60 minutes after the antitussive treatment by i.p. route. Male animals of 300-400 g pigs are placed in perspex box (20×30×30 cm) connected to an aerosol compressor; the animals are subjected to a citric acid saturated atmosphere, 60 minutes after the i.p. injection of a compound of the invention (0.1 and 0.3M solutions; 1 ml/kg).
The total number of cough strokes and the delay of the first cough are recorded during the first five minutes.
Five guinea pigs are used for each dose level and the results are compared with controls (vehicle treatment) and codeine phosphate 0.07M solution (standard treatment).
ED50 and the corresponding delay of first cough stroke are calculated.
The data obtained by i.p. administration are confirmed by oral administration.

[3] = test system: cough induced by electric stimulation in dogs; experiment: Dog cough test (cough induced by electric stimulation, Stefko procedure); format: in vivo, conscious mongrel dogs
Description: as §1
In the Stefko procedure, conscious mongrel dogs (15±3 kg body weight) are used; the compounds of the invention are tested for their ability to inhibit cough induced by electric stimulation.
Under general anesthesia, two insulated nichrome wires (0.4 mm diameter) are surgically implanted into the submucosa of the trachea.
About two days later, the dogs are placed in a sling and the exteriorized electrodes are connected to an electric stimulating device (such as Grass S 48 Mod.).
The stimulation parameters such as: delay 0.01 msec, duration 1 msec, frequency 30 Hz, are used.
An electrical stimulus of 1 sec is applied 10 times at 5 sec intervals in order to determine the minimum voltage necessary for eliciting reproducible cough responses. Then, tussive responses to the electrical stimuli are registered at 15, 30, 60, 90, 120, 150, 180, 240, 300 and 360 minutes after oral administration of the compounds of the invention.
The tussive responses are scored as follows: 1: no response; 2: sigh or exaggerated expiration; 3: marked cough; 4: one marked cough and one exaggerated expiration: 5: two marked coughs.
Six dogs are employed for each determination and the mean activity is calculated.
The inhibition percent of the cough response and the duration of activity are compared with codeine.

[4] = Cavia porcellus, ip, 1 h, read-out: ED50
[5] = Table 1, 0.153 M, oral, AUC over seven days

Compound: 3-acetylthioacetyl-2-[2'-(o-acetylthioacetoxyphenyl)ethyl]thiazolidine
- Fucose (mg/ml), AUC as a 100% compared to bronchitic controls ([1]; oral): 128%
- Galactose (mg/ml), AUC as a 100% compared to bronchitic controls ([1]; oral): 67%
- Mucus production (ml/kg), AUC as a 100% compared to bronchitic controls ([1]; oral): 76.1%
- Phospholipids (mg/ml), AUC as a 100% compared to bronchitic controls ([1]; oral): 47.2%
- Protein (mg/ml), AUC as a 100% compared to bronchitic controls ([1]; oral): 48%
- Sialic acid (mg/ml), AUC as a 100% compared to bronchitic controls ([1]; oral): 36.2%
- Viscosity (cps), AUC as a 100% compared to bronchitic controls ([1]; oral): 70%
- mucus regulating activity (in words) [1]: particularly favourable increase of their mucus regulating activity
- decrease of the antitussive potency in comparison with the reference compound 3 [2]: ~10 times
- ED50 [2]: 61 mg/kg

Compound: COc1ccccc1OCC1NCCS1 (stereo not shown) [2-(o-methoxyphenoxy)-methyl-thiazolidine, 2-(o-methoxyphenoxymethyl)thiazolidine]
- Fucose (mg/ml), AUC as a 100% compared to bronchitic controls ([1]; oral): 76%
- Galactose (mg/ml), AUC as a 100% compared to bronchitic controls ([1]; oral): 59%
- Mucus production (ml/kg), AUC as a 100% compared to bronchitic controls ([1]; oral): 124%
- Phospholipids (mg/ml), AUC as a 100% compared to bronchitic controls ([1]; oral): 106%
- Protein (mg/ml), AUC as a 100% compared to bronchitic controls ([1]; oral): 92%
- Sialic acid (mg/ml), AUC as a 100% compared to bronchitic controls ([1]; oral): 85%
- Viscosity (cps), AUC as a 100% compared to bronchitic controls ([1]; oral): 116%

Compound: COc1ccccc1OCC1SCCN1C(=O)CSC(=O)CCC1CCCCC1 (stereo not shown) [3-(3'-cyclohexyl)propionylthioacetyl-2-(o-methoxyphenoxy)methyl-thiazolidine]
- ED50 [2, 4]: 0.5 to 4 mg/kg

Compound: CCOCCOCC(=O)N1CCSC1COc1ccccc1OC (stereo not shown) [3-(3,6-dioxa-capriloyl)-2-(O-methoxyphenoxy)methyl-thiazolidine]
- mucus regulating effectiveness compared with carboxymethylcysteine [1]: at least as effective as 0.153M of 5-carboxymethylcysteine

Compound: COc1ccccc1OCC1SCCN1C(=O)CCn1ccnc1 (stereo not shown) [3-(3-imidazol-1-yl)-propionyl-2-(O-methoxyphenoxy)methylthiazolidine]
- mucus regulating effectiveness compared with carboxymethylcysteine [1]: at least as effective as 0.153M of 5-carboxymethylcysteine

Compound: C#CCOc1ccccc1OCC1SCCN1C(=O)CCn1ccnc1 (stereo not shown) [3-(3-imidazol-1-yl)-propionyl-2-(O-propargyloxyphenoxy)methyl-thiazolidine]
- mucus regulating effectiveness compared with carboxymethylcysteine [1]: at least as effective as 0.153M of 5-carboxymethylcysteine

Compound: CCOCCSCC(=O)N1CCSC1COc1ccccc1OC (stereo not shown) [3-(3-thia-6-oxa-capriloyl)-2-(O-methoxyphenoxy)methylthiazolidine]
- mucus regulating effectiveness compared with carboxymethylcysteine [1]: at least as effective as 0.153M of 5-carboxymethylcysteine

Compound: COc1ccccc1OCC1SCCN1C(=O)CN1CCN(C)CC1 (stereo not shown) [3-(4'-methyl-piperazin-1'-yl)acetyl-2-(o-methoxyphenoxy)methyl-thiazolidine]
- ED50 [2, 4]: 0.5 to 4 mg/kg

Compound: COc1ccccc1OCC1SCCN1C(=O)CSC(=O)CN1CCN(C)CC1 (stereo not shown) [3-(4'-methylpiperazine-1-yl)acetylthioacetyl-2-(o-methoxyphenoxy)methylthiazolidine]
- ED50 [2, 4]: 0.5 to 4 mg/kg

Compound: CC(=O)SCC(=O)N1CCSC1COc1ccccc1O (stereo not shown) [3-acetylthio-acetyl-2-[(o-hydroxyphenoxy)methyl]thiazolidine]
- Fucose (mg/ml), AUC as a 100% compared to bronchitic controls ([1]; oral): 90.8%
- Galactose (mg/ml), AUC as a 100% compared to bronchitic controls ([1]; oral): 38.2%
- Mucus production (ml/kg), AUC as a 100% compared to bronchitic controls ([1]; oral): 99.2%
- Phospholipids (mg/ml), AUC as a 100% compared to bronchitic controls ([1]; oral): 47%
- Protein (mg/ml), AUC as a 100% compared to bronchitic controls ([1]; oral): 62.0%
- Sialic acid (mg/ml), AUC as a 100% compared to bronchitic controls ([1]; oral): 49.5%
- Viscosity (cps), AUC as a 100% compared to bronchitic controls ([1]; oral): 31.9%
- mucus regulating activity (in words) [1]: particularly favourable increase of their mucus regulating activity
- ED50 [2, 4]: 60 mg/kg
- decrease of the antitussive potency in comparison with the reference compound 3 [2]: ~10 times

Compound: CC(=O)SCC(=O)N1CCSC1COc1ccccc1C (stereo not shown) [3-acetylthioacetyl-2-(o-tolyloxymethyl)thiazolidine]
- fucose content in the mucus (in words) ([1]; tested as mucus regulator): increases
- galactose content in the mucus (in words) ([1]; tested as mucus regulator): poorly affecting
- protein content in the mucus (in words) ([1]; tested as mucus regulator): increases
- sialic content in the mucus (in words) ([1]; tested as mucus regulator): poorly affecting
- viscosity of the mucus (in words) ([1]; tested as mucus regulator): increases
- antitussive properties (in words) [2]: devoid of any antitussive properties

Compound: COc1ccccc1OCC1SCCN1C(=O)CSC(=O)c1ccccc1 (stereo not shown) [3-benzoylthioacetyl-2-(o-methoxyphenoxy)methyl-thiazolidine]
- ED50 [2, 4]: 0.5 to 4 mg/kg

Compound: CC(=O)SCC(=O)Oc1ccccc1OCC1SCCN1C(=O)CSC(C)=O (stereo not drawn) [3-α-acetylthioacetyl-2-[(o-α-acetylthioacetoxyphenoxy)methyl]thiazolidine]
- Fucose (mg/ml), AUC as a 100% compared to bronchitic controls ([1]; oral): 147.9%
- Galactose (mg/ml), AUC as a 100% compared to bronchitic controls ([1]; oral): 72.9%
- Mucus production (ml/kg), AUC as a 100% compared to bronchitic controls ([1]; oral): 74.0%
- Phospholipids (mg/ml), AUC as a 100% compared to bronchitic controls ([1]; oral): 49.8%
- Protein (mg/ml), AUC as a 100% compared to bronchitic controls ([1]; oral): 46.9%
- Sialic acid (mg/ml), AUC as a 100% compared to bronchitic controls ([1]; oral): 31.3%
- Viscosity (cps), AUC as a 100% compared to bronchitic controls ([1]; oral): 71.9%
- mucus regulating activity (in words) [1]: particularly favourable increase of their mucus regulating activity
- ED50 [2, 4]: 162 mg/kg
- decrease of the antitussive potency in comparison with the reference compound 3 [2]: ~10 times

Compound: COc1ccccc1SCC1SCCN1C(=O)CSC(C)=O (stereo not drawn) [3α-acetylthioacetyl-2-(o-methoxyphenylthio)methyl-thiazolidine]
- ED50 [2, 4]: 0.5 to 4 mg/kg

Compound: CCOC(=O)[C@@H]1CSC(COc2ccccc2OC)N1 (stereo partly shown) [4-carbethoxy-2-(o-methoxyphenoxy)methyl-thiazolidine]
- ED50 [2]: inactive
- duration of action ([3]; dog cough test, in words): short
- % inhibition of cough stimulus ([3]; dog, oral, dose not given): 26.7%

Compound: O=C(O)C1CSC(COc2ccccc2O)N1 (stereo not shown) [4-carboxy-2-[(o-hydroxyphenoxy)methyl]-thiazolidine]
- mucus regulating activity (in words) [1]: high mucus regulating activity
- antitussive properties (in words) [2]: reduced antitussive potency

Compound: N[C@@H](CSCC(=O)O)C(=O)O [S--carboxymethyl cysteine, S-carboxymethyl cysteine, reference compound]
- Fucose mg/ml, AUC as a % compared to bronchitic controls [1, 5]: 56%
- Galactose mg/ml, AUC as a % compared to bronchitic controls [1, 5]: 64%
- Mucus production ml/kg, AUC as a % compared to bronchitic controls [1, 5]: 97%
- Phospholipids mg/ml, AUC as a % compared to bronchitic controls [1, 5]: 108%
- Protein mg/ml, AUC as a % compared to bronchitic controls [1, 5]: 105%
- Sialic acid mg/ml, AUC as a % compared to bronchitic controls [1, 5]: 60%
- Viscosity (cps), AUC as a % compared to bronchitic controls [1, 5]: 52%
